Assays:
[1] = tested on: isolated rat prefrontal cortex, nitrite; assay: H2O2-induced nitrite level in isolated cortexes (Griess assay); conditions: hydrogen peroxide 300 µM; for inhibition of H2O2-induced increase in nitrite level: 1–1000 nM
Description: (§1) Sprague–Dawley rats (200–250 g) were sacrificed by CO2 inhalation and isolated prefrontal cortex specimens were immediately explanted and exposed to 300 µM H2O2 and different concentrations of CBD (1–1000 nM) and CBG (1–1000 nM) for one hour, at 37 °C. The nitrite concentration in the resuspension buffer was determined by colorimetric Griess assay. Specifically, cortex specimens were homogenized for 2 min with Potter–Elvehjem homogenizer in 2 mL DMEM buffer. The homogenate was centrifuged at 4500 g for 10 min and nitrite production was determined in the supernatant fraction by mixing 50 µL of the assay buffer with 50 µL of Griess reagent (1.5% sulfanilamide in 1M HCl plus 0.15% N-(1-naphthyl) ethylenediamine dihydrochloride in distilled water, v/v). After 10 min incubation at room temperature, the absorbance at 540 nm was determined and nitrite concentrations were calculated from a sodium nitrite standard curve. All measurements were performed in triplicate.

[2] = tested on: isolated rat prefrontal cortex, 5-HT; assay: H2O2-induced reduction in 5-HT level in isolated cortexes; conditions: hydrogen peroxide 300 µM; CBD 1000 nM, CBG 1 nM
Description: as §1, with “All measurements were performed in triplicate.” left out
Tissue 3-HK, 5-HT and 5HIIA levels were analyzed through an HPLC apparatus consisting of a Jasco (Tokyo, Japan) PU-2080 chromatographic pump and an ESA (Chelmsford, MA, USA) Coulochem III coulometric detector, equipped with a microdialysis cell (ESA-5014b), a porous graphite working electrode and a solid state palladium reference electrode. The analytical conditions for identification and quantification were selected according to previous studies. […]

synaptotagmin-1 (Syt 1) = assay: Untargeted proteomic analysis of cortexes, Syt 1; parameters: species or system rat; conditions: CBD 1000 nM, CBG 1 nM
Description: Sprague–Dawley rats (200–250 g) were sacrificed by CO2 inhalation (Italian Health Ministry authorization N. F4738.N.XTQ, delivered on 11th November 2018) and isolated prefrontal cortex specimens were immediately explanted and incubated in thermostatic shaking bath at 37 °C for 1 h (incubation period), in Krebs–Ringer buffer at the following K^+ concentrations:
Cortexes were stimulated with CBD (1000 nM) and CBD (1 nM). Afterwards, specimens were homogenized in perchloric acid solution (0.05 M) for the extraction and quantification of nitrites, via the aforementioned colorimetric Griess assay, and serotonin (5-HT), 5-hydroxyindoleacetic (5HIIA),3-hydroxykinurenine (3-HK) and kinurenic acid (KA) (ng/mg wet tissue) via high performance liquid chromatography analysis. Additionally, an untargeted proteomic analysis was carried out on the cortex homogenate. The analytical protocols for 5-HT, 5HIIA, 3-HK, KA and protein level determinations are described below. […]
After protein quantification, a volume corresponding to 50 μg of proteins was loaded onto a Nanosep 10-kDa-cutoff filter (Pall Corporation, Michigan, USA) and digested according to the protocol we routinely use in our laboratory, adapted from Distler et al. Briefly, the sample was washed twice with 200 μL urea buffer (8M urea, 100 mM Tris pH 8.5 in milliQ water) to remove the detergents present in the lysis buffer. […]

| SMILES | inhibition of H2O2-induced increase in nitrite level [1] | effect on H2O2-induced 5-HT depletion [2] | effect on K+ 60 mM-induced reduction in Syt 1 level (synaptotagmin-1 (Syt 1)) | concentration of maximal inhibition of nitrite production ([1]; tested 1–1000 nM) |
| --- | --- | --- | --- | --- |
| C=C(C)[C@@H]1CCC(C)=C[C@H]1c1c(O)cc(CCCCC)cc1O [CBD, Cannabidiol] | inhibit such an increase at all the tested concentrations | blunting effect on 5-HT depletion | blocking the downregulation | – |
| CCCCCc1cc(O)c(C/C=C(\C)CCC=C(C)C)c(O)c1 [CBG, cannabigerol] | significant at the two lowest tested concentrations only | same effect at the concentration of 1 nM | completely ineffective | 1 nM |
